The source of these data is PubChem BioAssay AID1259407 (Chemical Carcinogenesis Research Information System (CCRIS), 2018).

In this data set the test system is CCRIS mutagenicity, Ames/micronucleus/aberration tests. In words: CCRIS mutagenicity studies.

Molecules are shown by their SMILES. Entries after “also recorded” stand apart in the source; their conditions may differ. Calls of active or inactive are those of the source. No rule for the calls is given here.

On to `c12c3c4c5c1c1c6c7c2c2c8c3c3c9c4c4c%10c5c5c1c1c6c6c%11c7c2c2c7c8c3c3c8c9c4c4c9c%10c5c5c1c1c6c6c%11c2c2c7c3c3c8c4c4c9c5c1c1c6c2c3c41`, for which the mutagenic call runs as follows: (End Point: In vitro chromosomal aberrations, Test System: Chinese hamster lung (CHL/IU) cells, Metabolic Activation: None) “inactive; negative”; (End Point: In vitro chromosomal aberrations, Test System: Chinese hamster lung (CHL/IU) cells, Metabolic Activation: S-9) “inactive; negative”; (End Point: In vitro micronucleus, Test System: Chinese hamster ovary (CHO) cells, Metabolic Activation: None) “active; positive (material tested was fullerol, c60(oh)24); also recorded: active; positive; actual chemical tested was hydroxyl fullerene c-60”; (End Point: In vitro micronucleus, Test System: Human Hela cells, Metabolic Activation: None) “active; positive (material tested was fullerol, c60(oh)24)”; (End Point: In vitro micronucleus, Test System: Human embryonic kidney 293 (HEK293) cells, Metabolic Activation: None) “inactive; negative; actual chemical tested was hydroxyl fullerene c-60”; (End Point: In vitro micronucleus, Test System: Human embryonic kidney cells (HEK 293), Metabolic Activation: None) “active; positive (material tested was fullerol, c60(oh)24)”. Further, the mutagenic call reads like this: (End Point: In vitro micronucleus, Test System: Human epidermoid-like carcinoma (Hela) cells, Metabolic Activation: None) “inactive; negative; actual chemical tested was hydroxyl fullerene c-60”; (Test System: Ames Salmonella typhimurium, Strain/Indicator: TA98, Metabolic Activation: None, Method: Preincubation) “inactive; negative”; (Test System: Ames Salmonella typhimurium, Strain/Indicator: TA98, Metabolic Activation: S-9, Method: Preincubation) “inactive; negative”; (Test System: Ames Salmonella typhimurium, Strain/Indicator: TA100, Metabolic Activation: None, Method: Preincubation) “inactive; negative”; (Test System: Ames Salmonella typhimurium, Strain/Indicator: TA100, Metabolic Activation: S-9, Method: Preincubation) “inactive; negative”; (Test System: Ames Salmonella typhimurium, Strain/Indicator: TA1535, Metabolic Activation: None, Method: Preincubation) “inactive; negative”. Besides, the mutagenic call by setting is: (Test System: Ames Salmonella typhimurium, Strain/Indicator: TA1535, Metabolic Activation: S-9, Method: Preincubation) “inactive; negative”; (Test System: Ames Salmonella typhimurium, Strain/Indicator: TA1537, Metabolic Activation: None, Method: Preincubation) “inactive; negative”; (Test System: Ames Salmonella typhimurium, Strain/Indicator: TA1537, Metabolic Activation: S-9, Method: Preincubation) “inactive; negative”; (Test System: E. coli, Strain/Indicator: WP2 uvrA/pKM101, Metabolic Activation: None, Method: Preincubation) “inactive; negative”; (Test System: E. coli, Strain/Indicator: WP2 uvrA/pKM101, Metabolic Activation: S-9, Method: Preincubation) “inactive; negative”; (Test System: Gpt delta transgenic mouse primary embryo fibroblasts (MEF), Strain/Indicator: Red/gam gene mutants, Metabolic Activation: None, Method: Spi- mutation assay) “active; positive”.
For `CCN1CCN=N1`, the mutagenic call (Test System: AMES SALMONELLA TYPHIMURIUM, Strain/Indicator: TA1535, Metabolic Activation: NONE, Method: STANDARD PLATE) is “active; positive”.
`CC(C)(c1ccc(O)cc1)c1ccc(O)cc1`: the mutagenic call by setting is: (End Point: IN VITRO CHROMOSOMAL ABERRATIONS, Test System: CHO CELLS, Metabolic Activation: RAT, LIVER, S-9, AROCLOR 1254) “inactive; negative; previous trial yielded positive result at 50 ug/ml but no dose-respons”; (End Point: In vitro micronucleus, Test System: Human lymphoblastoid AHH-1 cells, Metabolic Activation: None) “active; positive (all doses >10.8 ug/ml)”; (End Point: In vivo micronucleus, Test System: Bone marrow polychromatic erythrocytes, Species: Mouse, Strain/Sex: Swiss/Male, female, Route: Oral) “inactive; negative”; (Test System: AMES SALMONELLA TYPHIMURIUM, Strain/Indicator: TA97A, Metabolic Activation: NONE, Method: STANDARD PLATE) “inactive; negative”; (Test System: AMES SALMONELLA TYPHIMURIUM, Strain/Indicator: TA97A, Metabolic Activation: RAT LIVER S-9, PHENOBARBITAL AND BETA-NAPHTHAFLAVONE, Method: STANDARD PLATE) “inactive; negative”; (Test System: AMES SALMONELLA TYPHIMURIUM, Strain/Indicator: TA98, Metabolic Activation: NONE, Method: PREINCUBATION) “inactive; negative”. Moreover, the mutagenic call was “inactive; negative” (Test System: AMES SALMONELLA TYPHIMURIUM, Strain/Indicator: TA98, Metabolic Activation: NONE, Method: STANDARD PLATE); “inactive; negative” (Test System: AMES SALMONELLA TYPHIMURIUM, Strain/Indicator: TA98, Metabolic Activation: RAT LIVER S-9, AROCLOR 1254, Method: STANDARD PLATE); “inactive; negative” (Test System: AMES SALMONELLA TYPHIMURIUM, Strain/Indicator: TA98, Metabolic Activation: RAT LIVER S-9, PHENOBARBITAL AND BETA-NAPHTHAFLAVONE, Method: STANDARD PLATE); “inactive; negative” (Test System: AMES SALMONELLA TYPHIMURIUM, Strain/Indicator: TA98, Metabolic Activation: RAT LIVER S-9, PHENOBARBITAL AND BETA-NAPHTHOFLAVONE, Method: PREINCUBATION); “inactive; negative” (Test System: AMES SALMONELLA TYPHIMURIUM, Strain/Indicator: TA98, Metabolic Activation: S-9, Method: PREINCUBATION); “inactive; negative” (Test System: AMES SALMONELLA TYPHIMURIUM, Strain/Indicator: TA100, Metabolic Activation: NONE, Method: PREINCUBATION). Moreover, the mutagenic call by setting is: (Test System: AMES SALMONELLA TYPHIMURIUM, Strain/Indicator: TA100, Metabolic Activation: NONE, Method: STANDARD PLATE) “inactive; negative”; (Test System: AMES SALMONELLA TYPHIMURIUM, Strain/Indicator: TA100, Metabolic Activation: RAT LIVER S-9, AROCLOR 1254, Method: STANDARD PLATE) “inactive; negative”; (Test System: AMES SALMONELLA TYPHIMURIUM, Strain/Indicator: TA100, Metabolic Activation: RAT LIVER S-9, PHENOBARBITAL AND BETA-NAPHTHAFLAVONE, Method: STANDARD PLATE) “inactive; negative”; (Test System: AMES SALMONELLA TYPHIMURIUM, Strain/Indicator: TA100, Metabolic Activation: RAT LIVER S-9, PHENOBARBITAL AND BETA-NAPHTHOFLAVONE, Method: PREINCUBATION) “inactive; negative”; (Test System: AMES SALMONELLA TYPHIMURIUM, Strain/Indicator: TA100, Metabolic Activation: S-9, Method: PREINCUBATION) “inactive; negative”; (Test System: AMES SALMONELLA TYPHIMURIUM, Strain/Indicator: TA102, Metabolic Activation: NONE, Method: STANDARD PLATE) “inactive; negative”. In addition, the mutagenic call by setting is: (Test System: AMES SALMONELLA TYPHIMURIUM, Strain/Indicator: TA102, Metabolic Activation: RAT LIVER S-9, PHENOBARBITAL AND BETA-NAPHTHAFLAVONE, Method: STANDARD PLATE) “inactive; negative”; (Test System: AMES SALMONELLA TYPHIMURIUM, Strain/Indicator: TA1535, Metabolic Activation: NONE, Method: PREINCUBATION) “inactive; negative”; (Test System: AMES SALMONELLA TYPHIMURIUM, Strain/Indicator: TA1535, Metabolic Activation: RAT LIVER S-9, PHENOBARBITAL AND BETA-NAPHTHOFLAVONE, Method: PREINCUBATION) “inactive; negative”; (Test System: AMES SALMONELLA TYPHIMURIUM, Strain/Indicator: TA1537, Metabolic Activation: NONE, Method: PREINCUBATION) “inactive; negative”; (Test System: AMES SALMONELLA TYPHIMURIUM, Strain/Indicator: TA1537, Metabolic Activation: RAT LIVER S-9, PHENOBARBITAL AND BETA-NAPHTHOFLAVONE, Method: PREINCUBATION) “inactive; negative”; (Test System: CHINESE HAMSTER V-79, Strain/Indicator: V-79 (HPRT)/6-THIOGUANINE, Metabolic Activation: NONE) “inactive; negative”. Besides, the mutagenic call (Test System: E.COLI, Strain/Indicator: WP2UVRA, Metabolic Activation: NONE, Method: PREINCUBATION) was “inactive; negative” and the mutagenic call (Test System: E.COLI, Strain/Indicator: WP2UVRA, Metabolic Activation: RAT LIVER S-9, PHENOBARBITAL AND BETA-NAPHTHOFLAVONE, Method: PREINCUBATION) is “inactive; negative”.
